Consider 10 compounds from patent US20220339110A1, “FAST CONSOLIDATING COMPOUNDS” (Universität Innsbruck, priority 2019, published 2022).

Where only a bound is given, the exact number is not on record here.

Common to all, as to type: physicochemical
Data set [1] in a line: Drug load capacity test of moulded tablets with glass beads (Spheriglass 2429). The following applies: for Consolidation time / Consolidation time (in words): loaded with glass beads; for time to solid/stable tablets (in words): mixture with Spheriglass 2429 (50 wt % where stated), water. The source says: As model substance for the drug load capacity test, Spheriglass 2429 (glass beads, Potters Europe) was used, because there are no interactions between the glass beads and lactose to exclude other effects. Spheriglass 2429 has a particle size distribution of 53-106 μm. It was mixed with refluxed and sieved Spherolac 100 anhydrate (Spherolac 100 AH) (<250 μm) in a ratio of 30 and 60 wt %. […] The higher the amount of Spheriglass 2429 the less binder solution is needed, because of the decreasing amounts of water binding excipients.
A mixture of 50 wt % anhydrous glucose and 50 wt % Spheriglass 2429 was wetted with a 25 wt % glucose solution and pure water. The aim of this experiment was to investigate if the consolidation time is slowed down by loading a slower solidifying hydrate (in comparison to α-Lactose anhydrate) with a non-matrix-forming substance. […] The advantages of the use of glucose are rather seen as additive to other fast consolidating excipients to improve or modify the consolidation process, its rate, and the properties of the product.

A short description of data set [2]: Moulding process: time to stable tablets (consolidation/solidification time) and liquid amount after wetting the powder. Conditions: for consolidation/solidification time (in words): wetted with water. The protocol:
α-Lactose anhydrate was transferred into wells of a moulding form and wetted with pure water and water/alcohol mixtures, as shown in FIG. 2. Pure water and aqueous EtOH solutions, 25% (v/v) and 50% EtOH (v/v), ratio by volume, were used as solvents. These experiments were performed to measure the time needed for the formation of stable tablets, to determine the optimal amount of solvent, and to determine the optimal water:alcohol ratio in water/alcohol mixtures.
The solidification time (time until the tablets show sufficient hardness for handling) after addition of the solvent was determined using pure water and an aqueous glucose solution. It was observed that the solidification time of anhydrous glucose is much shorter when glucose solutions are applied instead of pure water. Glucose anhydrate solidifies after 10-15 min when water is used but hardens within 2-6 minutes after the application of glucose solutions. The amount of glucose in the solution is less critical for the solidification time, a concentration of 25 wt % is sufficient.
The moulding form tests were carried out with two different solvents: a) water and b) 50% EtOH (v/v) solution.
In a first experiment, tablets with amorphous Ca-L-Lactate (L-CaLac) using pure water were produced.
Wetting partly anhydrous MgSO4 (7 wt % water content) with pure water results in solid tablets. After 5 minutes the tablets can be unbaged from the moulding form. The wettability is not as good as for the α-lactose powders. About 50-60 μl water were added per 100 mg powder. By using a saturated aqueous solution of MgSO4 the hardening time could be halved (2-3 minutes).

Data set [3] is described as follows: Permanent stability of Na2SO4 tablets with binder in the wetting liquid. The protocol:
Attempts were undertaken to ensure the permanent stability of the Na2SO4 (decahydrate) tablets by adding binder polymers to the wetting liquid. Amounts of 5 wt % and 7.5 wt % aqueous PVA 388 solutions were tested. […] The tests show the possibility of a new approach: rapid solidification by hydrate formation and permanent stability through additional binders.

Data set [4] can be described thus: Mercury intrusion porosimetry of lactose tablets. Conditions: 3D-powder printed tablet; calculated value.
A short description of data set [5]: Mercury intrusion porosimetry of lactose tablets. As to the method:
The porosity, ratio between the sample void volumes and its external volume, of a tablet should be high if a fast disintegration is desired (e.g. for sublingual tablets). Porosity was measured using mercury porosimetry. For a complete mercury intrusion porosimetry (MIP) measurement, two different porosimeter types are needed—a low-pressure porosimeter (LP-MIP) and a high-pressure porosimeter (HP-MIP). As the LP-MIP, Pascal 140 (Thermo Fisher Scientific, I-Milano) was used and the Porosimeter 2000 (Carlo Erba, I-Milano) as the HP-MIP. Pure Spherolac 100 was used for the experiments.

Data set [6] in a line: Disintegration time of lactose tablets. The source says: Mercury porosimetry of the 3D-powder printed tablet indicated a porosity of 63.8% and an average pore radius of 48 Micron. […] Also the tablets produced by the molding process show porosities around 50% whereas those of the pressed tablets are much smaller. The high porosity guarantees a fast intrusion of fluids into the tablet and is thus an important prerequisite of a fast disintegration.

Data set [7] is described as follows: Tablet hardness, three-point-break tester. The following applies: 200 mg. The protocol:
The tablet hardness was measured with a three-point-break tester by Charles Ischi AG (HC 6.2 50 N).

Setting [8] is: 50 wt % Spheriglass 2429, 25 wt % glucose solution and pure water.
Setting [9] is: production method: 3D-powder printing.
Setting [10] is: production method: moulding process.
The mark [11] stands for this setting: 5 wt % PVA 388 in 50% EtOH (v/v).
Setting [12] is: 7.5 wt % PVA 388 in 50% EtOH (v/v).
[13] abbreviates: 10 wt % PVA 388 in 50% EtOH (v/v).
Where [14] appears, read: production method: compaction 10 kN.
Where [15] appears, read: production method: compaction 30 kN.

Take `C[C@H](O)C(=O)[O-].C[C@H](O)C(=O)[O-].[Ca+2]` [Ca-Lactate anhydrate, anhydrous Ca-Lactate]: the solidification time result in data set [1] (50 wt % Spheriglass 2429, 50% EtOH (v/v) binder solution) is recorded as “ca. 45 min”. Also, the Consolidation time in data set [1] (solvent H2O) and in data set [2] (solution: water) was 1 to 2 min throughout. For the same compound, in data set [2], the “consolidation/solidification time (in words)” value is “within one minute”.

`O.O=S(=O)([O-])[O-].O=S(=O)([O-])[O-].[Ca+2].[Ca+2]` [Calcium sulphate hemihydrate, reference compound]: the Consolidation time entry in data set [2] (solution: water) is recorded as “ca. 35 min”.

As to `OC[C@H]1OC(O)[C@H](O)[C@@H](O)[C@@H]1O` (some centres unmarked) [Glucose anhydrate], the “state of tablets after 10 minutes” value in data set [1] (setting [8]) is “still rather soft”. Besides, the “time after which tablets could be removed (in words)” value in data set [1] (setting [8]) is listed as “After four minutes”. For the same compound, the figures for the Consolidation time in data set [1] (solvent H2O), in data set [2] (solution: aqueous glucose solution (25-50 wt %)) and in data set [2] (solution: water) were above 10 min, 2 to 6 min and “ca. 10 min”, respectively. In addition, the values for the solidification time in data set [2] (glucose solutions applied) and in data set [2] (water) were 2 to 6 min and 10 to 15 min, respectively.

Take `O=C([O-])CC(O)(CC(=O)[O-])C(=O)[O-].O=C([O-])CC(O)(CC(=O)[O-])C(=O)[O-].[Mg+2].[Mg+2].[Mg+2]` [Mg Citrate anhydrate, anhydrous Mg Citrate]: the “time to stable tablets” value in data set [1] (50% wt Spheriglass 2429, wetting with water) is on record as at least 10 min; in data set [2] (pure water, with seed crystals of the dodecahydrate (about 2%)), 1 to 4 min. Also, the Consolidation time in data set [1] (solvent H2O) is listed as above 10 min; in data set [2] (solution: water), 1 to 4 min. The solidification time result in data set [2] (without seed crystals) is “about 4 min”.

Turning to `O=S(=O)([O-])[O-].[Mg+2]` [MgSO4 anhydrate], the “Consolidation time (in words)” value in data set [1] (solvent H2O) and in data set [2] (solution: water) was “few seconds” in each case. In addition, the “time to solid/stable tablets (in words)” value in data set [1] is listed as “after a few seconds”. For the same compound, the “consolidation/solidification time (in words)” value in data set [2] is “within a few seconds”.

Consider `O=S(=O)([O-])[O-].[Na+].[Na+]` [Na2SO4 anhydrate], for which the “Consolidation time (in words)” value in data set [1] (solvent H2O) is given as “few seconds”; in data set [2] (50% EtOH (v/v) solution) it was “within one minute”; in data set [2] (solution: water) it was “few seconds”. Moreover, the “time to solid/stable tablets (in words)” value in data set [1] is given as “within a few seconds”. Besides, the “mechanical stability of tablets (in words)” value in data set [3] (7.5 wt % aqueous PVA 388 solution, after drying two and a half days at 22° C. or 40° C.) was “mechanically stable tablets”. In addition, in data set [3] (wetted with 5 wt % aqueous PVA 388 solution), the “mechanical stability of tablets the next day (in words)” value is given as “still could be easily crushed”. Further, the “consolidation/solidification time (in words)” value in data set [2] was “within a few seconds”.

As for `OC[C@H]1O[C@H](OC[C@H]2O[C@H](O[C@]3(CO)O[C@H](CO)[C@@H](O)[C@@H]3O)[C@H](O)[C@@H](O)[C@@H]2O)[C@H](O)[C@@H](O)[C@H]1O` [Raffinose anhydrate], the Consolidation time in data set [1] (solvent H2O) is 2 min; in data set [1] (solvent H2O/EtOH 1:1), 4 min. The “time to solid/stable tablets (in words)” value in data set [1] is on record as “Two minutes”. In addition, the “time after which tablets could be removed” value in data set [1] (with Spheriglass, 50% EtOH (v/v) solution) fell in the range of 2 to 4 min. Also, the “Consolidation time (in words)” value in data set [2] (50% EtOH (v/v) solution) is listed as “about four to five minutes”; in data set [2] (solution: water), “few seconds”. For the same compound, the “consolidation/solidification time (in words)” value in data set [2] was “within a few seconds”.

As to `OC[C@H]1O[C@@H](O[C@H]2[C@H](O)[C@@H](O)[C@@H](O)O[C@@H]2CO)[C@H](O)[C@@H](O)[C@H]1O` [Spherolac 100 AH], the “time to stable tablets after wetting (in words)” value in data set [1] (mixed with Spheriglass 2429 at 30 and 60 wt %) is given as “within a few seconds”. For the same compound, the calculated porosity in data set [4] is 71.3%. Also, the Average Pore Radius in data set [5] (3D-powder printed tablet) was 48 Micron; in data set [5] (setting [9]), 48 μm; in data set [5] (setting [10]), 2.4 μm. Moreover, the “porosity (mercury porosimetry)” value in data set [5] (3D-powder printed tablet) was found to be 63.8%. The figures for the Porosity in data set [5] (setting [9]), in data set [5] (setting [10]) and in data set [5] (tablets produced by the molding process) were 63.8%, 49% and “around 50%”, respectively. Moreover, the “disintegration time (in words)” value in data set [6] (printed tablets) is on record as “few seconds”. Further, the “Average hardness of tablet” value in data set [7] (setting [11]) was found to be 10.45 N; in data set [7] (5 wt % aq. PVA 388), 8.65 N; in data set [7] (setting [12]) it was 16.75 N; in data set [7] (7.5 wt % aq. PVA 388) it was 12.2 N; in data set [7] (setting [13]) it was 20.2 N; in data set [7] (10 wt % aq. PVA 388), 14.75 N. For the same compound, the “Average hardness of tablet” value in data set [7] (binder solution: water) stood at 9.4 N.

For `O.OC[C@H]1O[C@@H](O[C@H]2[C@H](O)[C@@H](O)[C@@H](O)O[C@@H]2CO)[C@H](O)[C@@H](O)[C@H]1O` [Spherolac 100 MH, α-Lactose monohydrate], the “Average Pore Radius” value is 0.6 μm in data set [5] (setting [14]) and 0.2 μm in data set [5] (setting [15]). Also, the Porosity in data set [5] (setting [14]) is recorded as 12%; in data set [5] (setting [15]), 5%. The “disintegration time (in words)” value in data set [6] (tablets produced at compaction pressure of 30 kN) is on record as “several minutes”. Moreover, the figures for the “Average hardness of tablet” value in data set [7] (setting [11]), in data set [7] (setting [12]) and in data set [7] (setting [13]) were 5.85 N, 8.1 N and 13.1 N, respectively.

Consider `OC[C@H]1O[C@@H](O[C@H]2[C@H](O)[C@@H](O)[C@@H](O)O[C@@H]2CO)[C@H](O)[C@@H](O)[C@H]1O` [Stable α-Lactose anhydrate], for which the “Consolidation time (in words)” value in data set [1] (solvent H2O) and in data set [1] (solvent H2O/EtOH 1:1) was “few seconds” in each case. Also, the Consolidation time in data set [2] (solution: water) lay in the range of 0.083 to 0.167 min. For the same compound, the “time to stable tablets” value was “more than 10 seconds” in data set [2] (water/alcohol mixtures (25% and 50% EtOH v/v)); 0.083 to 0.167 min in data set [2] (wetting with pure water).
